Measured values taken from article PMC10545732, “Structure-based drug discovery of a corticotropin-releasing hormone receptor 1 antagonist using an X-ray free-electron laser” (Experimental & Molecular Medicine, 2023).
Entries after “also recorded” stand apart in the source; their conditions may differ.

Assays:
C57BL/6J mice = experiment: Open field test (OFT); format: in vivo; details: 30 mg/kg orally for 3 days, 1 h open field
Protocol: C57BL/6J mice (male, 9–10 weeks old) were used for the behavioral tests. All mice were maintained under a 12:12-h light–dark cycle (lights on at 7:00 A.M.) with access to food and water ad libitum. Animal care and handling were performed according to guidelines by the Institutional Animal Care and Use Committee of Yonsei University (Seoul, Korea). Antalarmin, BMK-C203, and BMK-C205 were dissolved in peceol: TPGS: PEG400 (vehicle) (70%:20%:10%, respectively) and administered orally at a dose of 30 mg/kg for 3 days at 24-h intervals. All behavioral tests were conducted 2 h after the third drug was administered during light periods of the circadian cycle. TSTs were performed to verify the effect of CRF1R antagonists on depressive-like behavior. Each mouse was suspended by its tail on a bar 30 cm above the ground for 6 min using adhesive tape. Their movements were recorded by a camera and analyzed using the same parameters via EthoVision XT 8.5 software (Noldus Technologies). Immobility times during the last 4 min of the task were measured. Each mouse was placed in an open field (40 cm × 40 cm × 40 cm chamber) for 1 h to conduct an open field test (OFT) and test locomotion. Their locomotion was recorded and analyzed using EthoVision XT 8.5.

hCMECs/D3 = experiment: In vitro BBB permeability assay; format: in vitro ADME, human
Protocol: Human cerebral microvascular endothelial cells (hCMECs/D3, SCC066; Sigma-Aldrich) were used to assess the permeability of CRF1R antagonists across the BBB. hCMECs were seeded on Falcon^TM cell culture inserts (08-770, Fisher Scientific) with 0.4 μm pore sizes precoated with collagen type I from rat tails (354236, Corning) at a density of 50,000 cells/mL in endothelial cell growth medium-2 (EGM-2, CC-3162; Lonza). The medium was changed with EGM-2 every three to four days for proliferation and with EGM-2 containing 2.5% human serum (SLBX6020, Sigma-Aldrich) for differentiation. Cell culture inserts were transferred into 24-well plates containing 700 μL of EGM-2 in each well (basolateral compartment) for the permeability assay. The medium in the inserts (apical compartment) was then replaced with 300 μL EGM-2 containing 10 μM BMK-C203 or BMK-C205. Apical and basolateral compartments were collected after a 12-h incubation at 37 °C, and drug concentrations were measured using HPLC. For sample preparation, 50 μL of the sample was mixed with 10 μL of an internal standard solution (d4-cortisol). Subsequently, 50 μL of acetonitrile was added, and the mixture was centrifuged at 16,000×g for 10 min for protein precipitation. The supernatants were used for LC‒MS analysis with a triple quadrupole mass spectrometer coupled with HPLC using a C18 reversed-phase column. The concentration of the antagonists was determined using a calibration curve. The permeability coefficient (P) was calculated according to Pardridge et al.[34]. The permeability-surface area product (PS, in cm^3/s) was divided by the filter surface area A (in cm^2) using Eq. (1) as follows:1 Pcm/s=Vd×△Ma/A×[…]×△t where Vd is the volume in the donor compartment in cm^3, ΔMa is the total amount of the compound in the […] compartment after t seconds, Md is the donor amount, Δt is the incubation time, and A is the filter area in cm^2.

Row | permeability coefficient relative to BMK-C203 (hCMECs/D3) | Compound | OFT locomotion / overall moving distance (C57BL/6J mice)
1 | – | COc1cc(Br)cc(OC)c1-c1c(C)nn2c(N(CCCC(F)(F)F)CCCC(F)(F)F)nc(C)nc12 [BMK-C203] | did not differ among groups
2 | seven times higher | CCCCN(CC1CC1)c1nc(C)nc2c(-c3c(OC)cc(Br)cc3OC)c(C)nn12 [BMK-C205] | did not differ among groups; also recorded: no differences
